Results as given in paper PMC11726016 (Cancer Discovery, 2024).

What was measured:
[1] = tested on: endogenous MTAP WT and MTAP-deleted cancer cell lines; assay: Viability in a panel of endogenous MTAP WT and MTAP-deleted cancer cells; format: cell-based, human; details: 6 days
[2] = tested on: DOHH-2 tumors; assay: DOHH-2 tumor study, AM-9747 vs LLY-283; format: in vivo, mouse; details: LLY-283 30 mg/kg, AM-9747 100 mg/kg PO QD
[3] = tested on: bone marrow progenitors and circulating blood cells; assay: Bone marrow progenitor populations and circulating blood cells; format: in vivo, mouse; details: DOHH-2 study; LLY-283 30 mg/kg, AM-9747 100 mg/kg PO QD
[4] = tested on: SDMA and γH2AX in bone marrow, blood and DOHH-2 tumor; assay: Pharmacodynamics and MOA in vivo assay; details: DOHH-2 study, Day 11; LLY-283 30 mg/kg, AM-9747 100 mg/kg PO QD

SMILES: Nc1ncnc2c1ccn2[C@@H]1O[C@H]([C@H](O)c2ccccc2)[C@@H](O)[C@H]1O [LLY-283]
- relation of MTAP status to sensitivity in the cell panel [1]: MTAP status did not track closely with sensitivity
- tumor-free mice [2]: 2/10
- circulating blood cells (RBC, reticulocytes, platelets) [3]: highly substantial reductions in red blood cells (RBC), reticulocytes, and platelets
- megakaryocytic and erythroid progenitors (MEP) population in bone marrow [3]: substantial reduction
- Blood SDMA decrease [4]: 79%
- Bone marrow SDMA decrease [4]: 71%
- Tumor SDMA decrease [4]: 21%
